Measurements reported in the NIST ThermoML archive (doi:10.1021/je800325d).
± gives the expanded uncertainty stated by the source.

Experiments:
[1] = xn = mol fraction of the nth substance listed; conditions: 101 kPa, Liquid
[2] = refractive index (Na D-line) (dimensionless); xn = mol fraction of the nth substance listed; conditions: 101 kPa, Liquid, Standard Abbe refractometry

COC(=O)c1ccccc1 [methyl benzoate] + Cc1ccccc1C
Conditions | mass density, [1] [kg/m3] | refractive index, [2] | viscosity, [1] [mPa·s]
303.15 K, x1 = 0.0879 | 890.4 ± 4.1 | 1.5006 ± 0.0007 | 0.757 ± 0.016
303.15 K, x1 = 0.1997 | 911.4 ± 4.2 | 1.5007 ± 0.0007 | 0.842 ± 0.017
303.15 K, x1 = 0.3008 | 931.3 ± 4.3 | 1.501 ± 0.0006 | 0.908 ± 0.017
303.15 K, x1 = 0.3925 | 951.2 ± 4.3 | 1.5012 ± 0.0006 | 0.975 ± 0.018
303.15 K, x1 = 0.4928 | 970.9 ± 4.4 | 1.5016 ± 0.0006 | 1.06 ± 0.019
303.15 K, x1 = 0.5939 | 991.7 ± 4.4 | 1.5022 ± 0.0006 | 1.16 ± 0.019
303.15 K, x1 = 0.6852 | 1009.5 ± 4.5 | 1.5055 ± 0.0006 | 1.252 ± 0.02
303.15 K, x1 = 0.798 | 1031.6 ± 4.6 | 1.5083 ± 0.0006 | 1.395 ± 0.021
303.15 K, x1 = 0.8981 | 1052.1 ± 4.6 | 1.511 ± 0.0006 | 1.506 ± 0.022
303.15 K, x1 = 0.9485 | 1056.3 ± 4.6 | 1.5115 ± 0.0006 | 1.593 ± 0.022
313.15 K, x1 = 0.0879 | 882.3 ± 4.5 | 1.497 ± 0.0007 | 0.664 ± 0.016
313.15 K, x1 = 0.1997 | 902.1 ± 4.5 | 1.4971 ± 0.0007 | 0.72 ± 0.016
313.15 K, x1 = 0.3008 | 922.8 ± 4.6 | 1.498 ± 0.0006 | 0.785 ± 0.016
313.15 K, x1 = 0.3925 | 942.6 ± 4.6 | 1.4996 ± 0.0006 | 0.836 ± 0.017
313.15 K, x1 = 0.4928 | 962.4 ± 4.7 | 1.5002 ± 0.0006 | 0.91 ± 0.017
313.15 K, x1 = 0.5939 | 983 ± 4.8 | 1.5017 ± 0.0006 | 0.992 ± 0.018
313.15 K, x1 = 0.6852 | 1000.7 ± 4.8 | 1.5038 ± 0.0006 | 1.07 ± 0.018
313.15 K, x1 = 0.798 | 1022.5 ± 4.9 | 1.5062 ± 0.0006 | 1.171 ± 0.019
313.15 K, x1 = 0.8981 | 1042.8 ± 4.9 | 1.5085 ± 0.0006 | 1.29 ± 0.02
313.15 K, x1 = 0.9485 | 1046.7 ± 4.9 | 1.5101 ± 0.0006 | 1.351 ± 0.02

CC(=O)OCCC(C)C [3-methylbutyl ethanoate] + Cc1cccc(C)c1
Conditions | mass density, [1] [kg/m3] | refractive index, [2] | viscosity, [1] [mPa·s]
303.15 K, x1 = 0.0877 | 855.8 ± 3.9 | 1.483 ± 0.0007 | 0.561 ± 0.015
303.15 K, x1 = 0.1726 | 856.5 ± 3.9 | 1.4745 ± 0.0007 | 0.572 ± 0.015
303.15 K, x1 = 0.3736 | 858.2 ± 3.8 | 1.4549 ± 0.0006 | 0.605 ± 0.015
303.15 K, x1 = 0.4421 | 858.4 ± 3.8 | 1.4487 ± 0.0006 | 0.619 ± 0.015
303.15 K, x1 = 0.5478 | 858.8 ± 3.7 | 1.4398 ± 0.0006 | 0.643 ± 0.015
303.15 K, x1 = 0.657 | 859.3 ± 3.7 | 1.4297 ± 0.0006 | 0.666 ± 0.015
303.15 K, x1 = 0.7478 | 860.1 ± 3.6 | 1.4207 ± 0.0006 | 0.687 ± 0.015
303.15 K, x1 = 0.8501 | 861 ± 3.6 | 1.4101 ± 0.0006 | 0.708 ± 0.015
303.15 K, x1 = 0.9465 | 861.9 ± 3.6 | 1.4014 ± 0.0006 | 0.727 ± 0.015
313.15 K, x1 = 0.0877 | 847.3 ± 4.2 | 1.4811 ± 0.0007 | 0.502 ± 0.014
313.15 K, x1 = 0.1726 | 848.2 ± 4.2 | 1.4724 ± 0.0007 | 0.51 ± 0.014
313.15 K, x1 = 0.3736 | 849.5 ± 4.1 | 1.452 ± 0.0006 | 0.538 ± 0.014
313.15 K, x1 = 0.4421 | 849.6 ± 4.1 | 1.4456 ± 0.0006 | 0.549 ± 0.014
313.15 K, x1 = 0.5478 | 849.8 ± 4 | 1.435 ± 0.0006 | 0.568 ± 0.014
313.15 K, x1 = 0.657 | 850.3 ± 4 | 1.4248 ± 0.0006 | 0.587 ± 0.014
313.15 K, x1 = 0.7478 | 851.1 ± 4 | 1.4157 ± 0.0006 | 0.603 ± 0.014
313.15 K, x1 = 0.8501 | 851.9 ± 3.9 | 1.4056 ± 0.0006 | 0.623 ± 0.014
313.15 K, x1 = 0.9465 | 852.8 ± 3.9 | 1.3985 ± 0.0006 | 0.638 ± 0.014
